Where a name gives a salt, the structure may show the parent alone. Read-outs that look alike come from different tables or passages of the source.
Legend:
[1] = system: MON; assay: In-vitro plant fungicide test; format: cell-based; details: Table IVb, read-out: % Control at (ppm) indicated MON
[2] = system: Phytophthora capsici (PHY); assay: In-vitro plant fungicide test; format: cell-based; details: Phytophthora capsici
[3] = system: Pythium ultimum (PYU); assay: In-vitro plant fungicide test; format: cell-based; details: Globisporangium ultimum
[4] = system: Rhizoctonia solani (RHI); assay: In-vitro plant fungicide test; format: cell-based; details: Rhizoctonia solani
[5] = system: UST; assay: In-vitro plant fungicide test; format: cell-based; parameters: inhibition of growth: concentration or dose not given beside the values; details: Table IVb, read-out: % Control at (ppm) indicated UST
[6] = system: Xanthomonas campestris (XAN); assay: In-vitro plant fungicide test; format: cell-based; parameters: inhibition of growth: concentration or dose not given beside the values; details: Xanthomonas campestris
[7] = system: THREE FUNGI; assay: MIC test against three fungi in Mycophile Broth, pH 5.0, read after 8 days (Table VII); format: cell-based; details: 192 h
[8] = system: Pseudomonas aerugenosa (PSAE); assay: Minimum inhibitory concentration (MIC), broth two-fold serial dilution test; details: Pseudomonas, read-out: MIC (G-) PSAE, M9G (minimal salts media with glucose); Table IIIc, iodopropargyl esters of peptides
[9] = system: Escherichia coli (ECOL); assay: as above; details: Escherichia coli, read-out: MIC (G-) ECOL, M9G (minimal salts media with glucose); Table IIIc, iodopropargyl esters of peptides
[10] = system: Staphylococcus aureus (SAUR); assay: as above; details: Staphylococcus aureus, read-out: MIC (G+) SAUR, M9G (minimal salts media with glucose); Table IIIc, iodopropargyl esters of peptides
[11] = Table IVb, read-out: % Control at (ppm) indicated XAN

With `C[C@H](N)C(=O)N[C@@H](COCc1ccccc1)C(=O)OCC#CI` [Compound 19, L-alanyl-O-benzyl-L-serine iodopropargyl ester trifluoroacetate] the inhibition of growth at 25 ppm ([1]; 25 ppm) was 100%, the inhibition of growth at 0.2 ppm ([1]; .2 ppm) was 0% and the inhibition of growth at 0.4 ppm ([1]; .4 ppm) was 0%. The inhibition of growth at 0.8 ppm ([1]; .8 ppm) was 0%, the inhibition of growth at 1.5 ppm ([2]; 1.5 ppm, Table IVb, read-out: % Control at (ppm) indicated PHY) was 0% and the inhibition of growth at 6 ppm ([2]; 6 ppm, Table IVb, read-out: % Control at (ppm) indicated PHY) was 0%. It also gave an inhibition of growth at 25 ppm ([2]; Table IVa, read-out: % Control at 25 ppm PHY) of 100%, an inhibition of growth at 25 ppm ([2]; Table IVb, read-out: % Control at (ppm) indicated PHY) of 100% and an inhibition of growth at 0.2 ppm ([2]; .2 ppm, Table IVb, read-out: % Control at (ppm) indicated PHY) of 0%. The inhibition of growth at 0.4 ppm ([2]; .4 ppm, Table IVb, read-out: % Control at (ppm) indicated PHY) was 0%, the inhibition of growth at 0.8 ppm ([2]; .8 ppm, Table IVb, read-out: % Control at (ppm) indicated PHY) was 0% and the inhibition of growth at 1.5 ppm ([3]; 1.5 ppm, Table IVb, read-out: % Control at (ppm) indicated PYU) was 0%. The inhibition of growth at 6 ppm ([3]; 6 ppm, Table IVb, read-out: % Control at (ppm) indicated PYU) was 0%, the inhibition of growth at 25 ppm ([3]; Table IVa, read-out: % Control at 25 ppm PYU) was 100% and the inhibition of growth at 25 ppm ([3]; Table IVb, read-out: % Control at (ppm) indicated PYU) was 100%. It also gave an inhibition of growth at 0.2 ppm ([3]; .2 ppm, Table IVb, read-out: % Control at (ppm) indicated PYU) of 0%, an inhibition of growth at 0.4 ppm ([3]; .4 ppm, Table IVb, read-out: % Control at (ppm) indicated PYU) of 0% and an inhibition of growth at 0.8 ppm ([3]; .8 ppm, Table IVb, read-out: % Control at (ppm) indicated PYU) of 0%. For the same compound, the inhibition of growth at 1.5 ppm ([4]; 1.5 ppm, Table IVb, read-out: % Control at (ppm) indicated RHI) was 0%, the inhibition of growth at 6 ppm ([4]; 6 ppm, Table IVb, read-out: % Control at (ppm) indicated RHI) was 0% and the inhibition of growth at 25 ppm ([4]; Table IVa, read-out: % Control at 25 ppm RHI) was 100%. The inhibition of growth at 25 ppm ([4]; Table IVb, read-out: % Control at (ppm) indicated RHI) was 100%, the inhibition of growth at 0.2 ppm ([4]; .2 ppm, Table IVb, read-out: % Control at (ppm) indicated RHI) was 0% and the inhibition of growth at 0.4 ppm ([4]; .4 ppm, Table IVb, read-out: % Control at (ppm) indicated RHI) was 0%. For the same compound, the inhibition of growth at 0.8 ppm ([4]; .8 ppm, Table IVb, read-out: % Control at (ppm) indicated RHI) was 0%, the inhibition of growth at 1.5 ppm ([5]; 1.5 ppm) was 0% and the inhibition of growth at 3 ppm ([5]; 3 ppm) was 0%. It also gave an inhibition of growth at 6 ppm ([5]; 6 ppm) of 100%, an inhibition of growth at 25 ppm ([5]; 25 ppm) of 100% and an inhibition of growth at 0.2 ppm ([5]; .2 ppm) of 0%. For the same compound, the inhibition of growth at 0.4 ppm ([5]; .4 ppm) was 0%, the inhibition of growth at 0.8 ppm ([5]; .8 ppm) was 0% and the inhibition of growth [5] was 100%. For the same compound, the inhibition of growth at 1.5 ppm ([6]; 1.5 ppm, Table IVb, read-out: % Control at (ppm) indicated XAN) was 0%, the inhibition of growth at 3 ppm ([6]; 3 ppm, Table IVb, read-out: % Control at (ppm) indicated XAN) was 0% and the inhibition of growth at 6 ppm ([6]; 6 ppm, Table IVb, read-out: % Control at (ppm) indicated XAN) was 0%. The inhibition of growth at 25 ppm ([6]; Table IVa, read-out: % Control at 25 ppm XAN) was 0%, the inhibition of growth at 25 ppm [6, 11] was 0% and the inhibition of growth at 0.2 ppm ([6]; .2 ppm, Table IVb, read-out: % Control at (ppm) indicated XAN) was 0%. For the same compound, the inhibition of growth at 0.4 ppm ([6]; .4 ppm, Table IVb, read-out: % Control at (ppm) indicated XAN) was 0%, the inhibition of growth at 0.8 ppm ([6]; .8 ppm, Table IVb, read-out: % Control at (ppm) indicated XAN) was 0% and the inhibition of growth [6, 11] was 0%. For the same compound, the MIC ([7]; Aspergillus niger, pH 5, read-out: MIC ANIG, Aspergillus niger, serial dilutions from 50 ppm, read after 8 days of incubation) was 50 µg/mL, the MIC ([7]; Aureobasidium pullulans, pH 5, read-out: MIC APUL, Aureobasidium pullulans, serial dilutions from 50 ppm, read after 8 days of incubation) was 50 µg/mL and the MIC ([7]; Gloeophyllum trabeum, pH 5, read-out: MIC GTRA, Gloeophyllum trabeum, serial dilutions from 50 ppm, read after 8 days of incubation) was 50 µg/mL. It also gave an MIC [8] of 50 µg/mL, an MIC [9] of 100 µg/mL and an MIC [10] of 100 µg/mL.

Reference: patent EP0414533A1, “Use of iodopropargyl esters of alpha-amino acid derivatives as antimicrobial agents” (ROHM AND HAAS COMPANY, priority 1989, dated 1991)
